The text below walks through data of patent US20250339400A1, “ARTESUNATE POWDERS, PHARMACEUTICAL COMPOSITIONS AND METHODS OF MANUFACTURE” (AMIVAS, INC., priority 2024, published 2025).

Data set [1] in a line: Tapped density, Caleva tapped density tester. It is filed as physicochemical. The following applies: 35% RH exposure ~24 h; after tapping.
For data set [2] the following is noted: cited from earlier work.
Data set [3] in a line: SEM images of caking / agglomeration. It is filed as physicochemical. The protocol:
SEM images were collected using a Phenom XL Desktop SEM equipped with a CeB6 electron source (see FIG. 6). Phenom User Interface version 1.4 was used to acquire and save the images. Detailed image parameters are recorded in the footer of each image. Powder sample preparation for proper SEM results is known to those skilled in the art, and mainly relies on a proper monolayer of particles. These can be prepared with: the flick method, wherein a cotton swab is used to disperse particles onto a sample support by the “flick of a finger”; drop casting, where liquid solvents transfer particles onto a sample stub; or the dish method, where particles are spread over the area of a petri dish or similar flat surface using a spatula. A Nebula Particle Dispenser may also be used to prepare a uniform layer of powder. Although it is desirable to avoid agglomeration, the example as described herein sought to determine when agglomeration occurs at particular humidity levels. The samples tested herein were prepared with the flick method.

The conditions of data set [4]: cited from earlier work. The source holds these as a separate data set.

Regarding `C[C@H]1[C@H](OC(=O)CCC(=O)O)O[C@@H]2O[C@@]3(C)CC[C@H]4[C@H](C)CC[C@@H]1[C@@]24OO3` [artesunate powder, 4-oxo-4-[[(1R,4S,5R,8S,9R,10S,12R,13R)-1,5,9-trimethyl-11,14,15,16-tetraoxatetracyclo[10.3.1.0^4,13.0^8,13]hexadecan-10-yl]oxy]butanoic acid], the “Bulk Density 3 (Tapped Densities of Powder Samples)” value in data set [1] was 0.337 g/mL. Moreover, in data set [2] (basic and acidic conditions), the “stability under basic and acidic conditions” value was “unstable”. Moreover, in data set [2] (moisture and heat (Agnihotri J. et al, 2013)), the “degradation by moisture and heat” value is on record as “susceptible to degradation”. Further, the “caking / agglomeration in SEM images” value in data set [3] (20% RH (FIG. 6)) is reported as “strong caking, or agglomeration”. In data set [3] (35% RH (FIG. 7)), the “caking in SEM images” value is recorded as “less caking”. In addition, the “agglomeration / caking in SEM images” value in data set [3] (50% RH (FIG. 8)) is given as “significant agglomeration, or caking”. The “solubility in organic solvents” value in data set [4] (organic solvents, such as acetone and methanol) is recorded as “soluble”. The solubility in water result in data set [4] (water) was “slightly soluble”.
